In the first assay the target is T1, Urease (Canavalia ensiformis, UniProt P07374). Briefly: Inhibition of jack bean urease assessed as reduction on ammonia production using urea as substrate incubated for 30 mins by indophenol method.
T1 sequence (P07374 whole entry): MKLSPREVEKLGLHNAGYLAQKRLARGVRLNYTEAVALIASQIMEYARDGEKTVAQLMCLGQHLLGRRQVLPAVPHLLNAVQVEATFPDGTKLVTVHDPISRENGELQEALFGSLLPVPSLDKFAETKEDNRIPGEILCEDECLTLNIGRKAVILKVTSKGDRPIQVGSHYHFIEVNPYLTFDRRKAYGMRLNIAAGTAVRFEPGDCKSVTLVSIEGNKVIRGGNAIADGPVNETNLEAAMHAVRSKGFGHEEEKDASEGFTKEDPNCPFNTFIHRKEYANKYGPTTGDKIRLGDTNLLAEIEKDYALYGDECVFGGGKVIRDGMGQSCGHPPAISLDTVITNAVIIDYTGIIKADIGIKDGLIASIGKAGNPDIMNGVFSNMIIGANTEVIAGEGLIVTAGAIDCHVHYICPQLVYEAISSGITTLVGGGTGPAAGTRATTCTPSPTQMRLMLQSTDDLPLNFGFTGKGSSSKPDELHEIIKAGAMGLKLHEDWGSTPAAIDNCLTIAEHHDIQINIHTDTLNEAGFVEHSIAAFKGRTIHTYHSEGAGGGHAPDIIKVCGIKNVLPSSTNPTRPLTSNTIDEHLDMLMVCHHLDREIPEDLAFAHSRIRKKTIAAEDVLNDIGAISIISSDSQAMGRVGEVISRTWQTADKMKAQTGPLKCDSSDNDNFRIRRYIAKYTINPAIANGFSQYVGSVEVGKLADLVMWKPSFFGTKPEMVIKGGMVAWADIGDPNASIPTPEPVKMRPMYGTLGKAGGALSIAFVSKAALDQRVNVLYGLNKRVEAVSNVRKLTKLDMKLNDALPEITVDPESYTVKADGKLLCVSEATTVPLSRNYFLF
Settings: not given
`CCCCCCCCCCCCCC(=O)NC(=S)Nc1cccc(Cl)c1`: the IC50 was 0.0391 µM.
Same read-out and setting: the value for `NC(N)=S` [THIOUREA] was 18.2 µM.

Another assay addresses T1, Urease. Kind of assay: Inhibition of jack bean urease assessed as reduction on ammonia production using urea as substrate incubated for 30 mins by indophenol reagent based UV-vis spectrophotometer.
Settings: not given
As for `Cc1nc2cc(Cl)c(Cl)cc2n1Cc1nnc(S)n1-c1ccc([N+](=O)[O-])cc1`, the IC50 came out at 0.0294 µM.
As for `S=P(Nc1ccc(CCc2ccc(NP(=S)(c3ccccc3)c3ccccc3)cc2)cc1)(c1ccccc1)c1ccccc1`, the IC50 amounted to 0.00191 µM.
Still for that read-out and setting: next, `Cc1nc2cc(Cl)c(Cl)cc2n1CC(=O)NNC(=S)Nc1ccc([N+](=O)[O-])cc1`: 0.0354 µM.

Tested on in another assay: not listed separately
Kind of assay: Inhibition of urease (unknown origin).
Settings: not given
With `CCc1nc2ccccc2c(=O)n1CC(=O)NNC(=O)c1cc2cc(Br)ccc2oc1=O`, the IC50 was determined as 1.26 µg/mL.
`O=c1c2ccccc2nc(Cc2ccccc2)n1Cc1nnc(Nc2ccc([N+](=O)[O-])cc2)s1` showed a concentration for half-maximal inhibition (IC50) of 3.3 µg/mL.

The same assay, now with this note: read-out: IC50.
As to `COc1ccc(/C=C/C(=O)c2ccc(O)cc2)cc1`, the IC50 is 11.5 µM.
Take `O=C1Nc2ccc(Cl)cc2/C1=C\c1ccc(C(=O)N/N=C/c2c(O)cc(O)cc2O)cc1`: the IC50 amounted to 13 µM.
The same measure, in the same setting: next, `O=C1NC(=S)NC(=O)C1=CNc1cc([N+](=O)[O-])ccc1C(=O)O`: 8.53 µM; `CC(C)=CCN1C(=O)/C(=N/Nc2ccccc2)c2ccccc21`: 0.71 µM; `Nc1cccc(C(c2c(O)c3ccccc3oc2=O)c2c(O)c3ccccc3oc2=O)c1`: 74.3 µM.
Same read-out and setting: the value for `O=[N+]([O-])c1ccc(S(=O)(=O)N/N=C(\c2ccccc2)c2ccc(O)cc2)cc1` was 3.9 µM; that for `O=C(CC(O)c1cc(Cl)ccc1OCc1ccccc1)NO` (configuration not stated) was 0.15 µM; that for `COc1ccc(-c2nc(C(=O)NC3CCCCC3)cs2)cc1` was 1.82 µM.
Still for that read-out and setting: the value for `O=[N+]([O-])c1ccc(S(=O)(=O)Nc2nnc(-c3ccc(C(c4c[nH]c5ccc(Br)cc45)c4c[nH]c5ccc(Br)cc45)cc3)s2)c([N+](=O)[O-])c1` was 0.5 µM; that for `COc1ccc(C(=O)NNC(=O)c2cc(Cl)cc(Cl)c2)cc1` was 0.87 µM; that for `O=C(N/N=C/c1c(O)ccc2c(=O)cc(-c3ccc(F)cc3)oc12)c1ccccc1` was 1.21 µM.
Regarding `Cc1ccc(/C=N/Nc2nc(-c3ccc(Br)cc3)cs2)cc1`, the IC50 worked out at 0.11 µM.
On the same count and under the same terms, the value for `CC(=O)NO` [ACETOHYDROXAMIC ACID] was 29.2 µM.

The target in the next assay is T1, Urease. Kind of assay: Inhibition of jack bean urease.
Settings: not given
As to `CCc1nc2cc([N+](=O)[O-])ccc2n1S(=O)(=O)c1ccc(C)cc1`, the midpoint of inhibition, the IC50, lay at 31.1 µM.
The same measure, in the same setting: the value for `CCNc1cc2c(cc1C)C1(c3cc(C)c(NCC)cc3O2)c2ccccc2C(=O)N1NC(=O)c1ccccc1` was 0.111 µM.
Same read-out and setting: next, `NNC(=O)c1ccc(C(=O)Cn2nc(-c3ccccc3O)nc2-c2ccccc2O)cc1`: 3.25 µM; `O=C(Cc1nnn[nH]1)Cn1nc(-c2ccccc2O)nc1-c1ccccc1O`: 1.27 µM.
Consider `Nn1c(-c2ccc(Br)cc2)n[nH]c1=S`, for which the IC50 was found to be 4.3 µM.
The same measure, in the same setting: next, `CCOc1ccc(NC(=S)N(CC(O)COc2ccc(CC(N)=O)cc2)C(C)C)cc1` (configuration not stated): 11.7 µM; `COc1cc(C(=O)c2c(O)c3ccccc3oc2=O)cc(OC)c1OC`: 11.3 µM.
On the same count and under the same terms, next, `Cc1ncc([N+](=O)[O-])n1Cc1cn(Cc2ccc(F)cc2)nn1`: 1.97 µM.
For `CCNC1NN=C(Cn2c(Cc3ccc(F)cc3)nc3ccccc3c2=O)S1` (configuration not stated), the midpoint of inhibition, the IC50, lay at 4.73 µM.
`C/C(=N\NC(=S)Nc1cccc([N+](=O)[O-])c1)c1cc2ccccc2o1` displayed an IC50 of 0.077 µM.
`O=C(/C=C/c1ccc(O)c(O)c1)O[C@@H]1C[C@](O)(C(=O)Nc2ccc(-c3ccc(Cl)cc3[N+](=O)[O-])cc2)CC(O)C1O` (some centres not stated) returned an IC50 of 11 µM.
In the case of `O=C1O[C@H]([C@@H](O)CO)C(O)=C1O` [ASCORBIC ACID], the IC50 came out at 8.59 µM.

Tested on in the next assay: not listed separately
Kind of assay: Antioxidant activity assessed as DPPH radical scavenging activity incubated for 30 mins. It counts as functional.
Settings: not given
`COc1ccc(-c2c/c(=N\C(=O)Oc3ccccc3)c3c(O)cc(O[C@@H]4O[C@H](CO)[C@@H](O)[C@H](O)[C@H]4O[C@@H]4O[C@@H](C)[C@H](O)[C@@H](O)[C@H]4O)cc3o2)cc1O`: the IC50 is 5.64 µM.
Turning to `COc1ccc(-c2c/c(=N\C(=S)Nc3cccc([N+](=O)[O-])c3)c3c(O)cc(O[C@@H]4O[C@H](CO)[C@@H](O)[C@H](O)[C@H]4O[C@@H]4O[C@@H](C)[C@H](O)[C@@H](O)[C@H]4O)cc3o2)cc1O`, the IC50 amounted to 5.2 µM.
For `O=C(/C=C/c1ccc(O)c(O)c1)O[C@@H]1C[C@](O)(C(=O)Nc2ccc(-c3ccc(Cl)cc3[N+](=O)[O-])cc2)CC(O)C1O` (some centres not stated), the IC50 worked out at 5.1 µM.

The next assay deals with T1, Urease. Kind of assay: Non-competitive inhibition of jack bean urease assessed as dissociation constant measured upto 10 mins by Lineweaver-Burk plot analysis.
Settings: not given
Consider `CCCCCCCCCCCCCC(=O)NC(=S)Nc1cccc(Cl)c1`, for which the Ki stood at 0.021 µM.

The next assay concerns the target T1, Urease. Briefly: Inhibition of jack bean urease assessed as reduction on ammonia production using urea as substrate incubated for 15 mins by indophenol reagent based microplate reader assay.
Settings: not given
For `NS(=O)(=O)c1ccc(NC=C2C(=O)NC(=S)NC2=O)cc1`, the IC50 worked out at 3.76 µM.
As to `COc1ccc(-c2c/c(=N\C(=O)Oc3ccccc3)c3c(O)cc(O[C@@H]4O[C@H](CO)[C@@H](O)[C@H](O)[C@H]4O[C@@H]4O[C@@H](C)[C@H](O)[C@@H](O)[C@H]4O)cc3o2)cc1O`, the IC50 is 15.6 µM.
Consider `C[C@H](O)c1nc2ccccc2[nH]1`, for which the IC50 stood at 22 µM.
Still for that read-out and setting: next, `COc1ccc(-c2c/c(=N\C(=S)Nc3cccc([N+](=O)[O-])c3)c3c(O)cc(O[C@@H]4O[C@H](CO)[C@@H](O)[C@H](O)[C@H]4O[C@@H]4O[C@@H](C)[C@H](O)[C@@H](O)[C@H]4O)cc3o2)cc1O`: 12.6 µM; `Oc1ccc(C2Oc3cc(O)cc(O)c3/C(=N/C(=S)Nc3ccccc3)C2O)c(O)c1` (configuration not stated): 7.37 µM.
Same read-out and setting: the value for `COc1ccc2cc([C@@H](C)c3nc4cc(Cl)ccc4[nH]3)ccc2c1` was 36 µM.

Tested on in the next assay: not listed separately
Briefly: Inhibition of urease (unknown origin) assessed as reduction on ammonia production using urea as substrate incubated for 15 mins by indophenol reagent based microplate reader assay.
Settings: not given
As for `O=C(NNC(=S)Nc1ccc([N+](=O)[O-])cc1)c1ccc(-c2nc3ccccc3s2)cc1`, the IC50 amounted to 1.4 µM.

The target in the next assay is Urease subunit alpha/Urease subunit beta (Helicobacter pylori (strain ATCC 700392 / 26695) (Campylobacterpylori), UniProt P69996). Briefly: Inhibition of Helicobacter pylori urease. It counts as protein-complex assay.
Chain of Urease subunit alpha/Urease subunit beta (P69996 whole entry): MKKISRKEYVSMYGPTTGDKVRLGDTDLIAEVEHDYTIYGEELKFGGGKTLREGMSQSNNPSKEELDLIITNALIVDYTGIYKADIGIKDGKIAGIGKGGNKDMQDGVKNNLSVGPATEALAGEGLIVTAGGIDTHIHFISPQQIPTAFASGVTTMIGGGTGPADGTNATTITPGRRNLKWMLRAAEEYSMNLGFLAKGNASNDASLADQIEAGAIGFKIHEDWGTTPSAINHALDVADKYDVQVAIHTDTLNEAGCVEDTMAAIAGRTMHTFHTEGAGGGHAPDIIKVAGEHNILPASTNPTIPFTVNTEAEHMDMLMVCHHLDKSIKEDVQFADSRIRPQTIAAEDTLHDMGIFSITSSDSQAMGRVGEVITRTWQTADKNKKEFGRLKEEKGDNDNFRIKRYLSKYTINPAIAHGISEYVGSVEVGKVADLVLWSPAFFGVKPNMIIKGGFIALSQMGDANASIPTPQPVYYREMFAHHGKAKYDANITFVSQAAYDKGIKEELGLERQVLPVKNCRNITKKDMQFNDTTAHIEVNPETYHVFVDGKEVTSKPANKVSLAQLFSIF
Chain of Urease subunit alpha/Urease subunit beta (P14916 whole entry, further chain): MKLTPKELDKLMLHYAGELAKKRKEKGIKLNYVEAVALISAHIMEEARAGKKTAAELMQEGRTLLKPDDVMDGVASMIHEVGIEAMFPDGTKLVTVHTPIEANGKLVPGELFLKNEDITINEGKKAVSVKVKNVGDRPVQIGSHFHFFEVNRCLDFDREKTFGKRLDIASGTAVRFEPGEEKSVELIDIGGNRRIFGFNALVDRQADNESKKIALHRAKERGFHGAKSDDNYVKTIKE
Settings: not given
For the molecule `O=C(COc1ccc(CC2C(=O)NC(=O)NC2=O)cc1)Nc1cccc(Cl)c1Cl`, the IC50 turned out to be 0.69 µM.
In turn, `NC(=O)NO` [HYDROXYUREA] came in with an IC50 of 100 µM.
The same measure, in the same setting: the value for `NC(N)=S` [THIOUREA] was 23 µM.

For another assay, the target named is T1, Urease. Briefly: Inhibition of jack bean urease assessed as reduction on ammonia production using urea as substrate preincubated for 15 mins followed by substrate addition and measured after 15 mins by indophenol method.
Settings: not given
As for `CC(C)NCC(O)COc1ccc(CC(N)=O)cc1` (configuration not stated) [ATENOLOL], the IC50 came out at 64.4 µM.

For the origin of these results see ChEMBL document CHEMBL5137004, “An overview on the synthetic urease inhibitors with structure-activity relationship and molecular docking” (Eur J Med Chem, 2022).
